Values of other authors in patent publication US12564203B2, “Coating composition comprising pH-sensitive polymer” (CJ CHEILJEDANG CORPORATION, priority 2020, dated 2026).

Details: degree of hydrophilicity (hydrophobicity) of an amino acid

SMILES | hydropathy index
N=C(N)NCCC[C@H](N)C(=O)O [arginine] | −4.5
CC[C@H](C)[C@H](N)C(=O)O [isoleucine] | 4.5
NCCCC[C@H](N)C(=O)O [lysine] | −3.9
CC(C)[C@H](N)C(=O)O [valine] | 4.2
